Results from patent US20250368647A1, “NITROGEN CONTAINING CONDENSED 2,3-DIHYDROQUINAZOLINONE COMPOUNDS AS NAV1.8 INHIBITORS” (GLAXOSMITHKLINE INTELLECTUAL PROPERTY DEVELOPMENT LIMITED, priority 2022, published 2025).

What follows are molecules tested against human Nav1.8 (Homo sapiens (Human), UniProt Q9Y5Y9) (assay: QPatch 48 HTX voltage-clamp electrophysiology, half inactivation state (V1/2) protocol, HEK293-Nav1.8 cells). Conditions: HEK293 cells expressing human Nav1.8, human Navβ1 and human TREK1, P2 current.
Format: cell-based
Summary of the method: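 HEK293 cells co-expressing Navβ1 and TREK1 were voltage-clamped from −100 mV: a 20 ms step to 0 mV, 8 s inactivation at −46 mV, 20 ms at −100 mV, then a 20 ms P2 test step to 0 mV, repeated every 15 s. P2 current was normalized to vehicle and full block, corrected for run-down, and Hill-fitted (4–6 concentrations) for IC50.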

human Nav1.8, sequence (Q9Y5Y9 whole entry): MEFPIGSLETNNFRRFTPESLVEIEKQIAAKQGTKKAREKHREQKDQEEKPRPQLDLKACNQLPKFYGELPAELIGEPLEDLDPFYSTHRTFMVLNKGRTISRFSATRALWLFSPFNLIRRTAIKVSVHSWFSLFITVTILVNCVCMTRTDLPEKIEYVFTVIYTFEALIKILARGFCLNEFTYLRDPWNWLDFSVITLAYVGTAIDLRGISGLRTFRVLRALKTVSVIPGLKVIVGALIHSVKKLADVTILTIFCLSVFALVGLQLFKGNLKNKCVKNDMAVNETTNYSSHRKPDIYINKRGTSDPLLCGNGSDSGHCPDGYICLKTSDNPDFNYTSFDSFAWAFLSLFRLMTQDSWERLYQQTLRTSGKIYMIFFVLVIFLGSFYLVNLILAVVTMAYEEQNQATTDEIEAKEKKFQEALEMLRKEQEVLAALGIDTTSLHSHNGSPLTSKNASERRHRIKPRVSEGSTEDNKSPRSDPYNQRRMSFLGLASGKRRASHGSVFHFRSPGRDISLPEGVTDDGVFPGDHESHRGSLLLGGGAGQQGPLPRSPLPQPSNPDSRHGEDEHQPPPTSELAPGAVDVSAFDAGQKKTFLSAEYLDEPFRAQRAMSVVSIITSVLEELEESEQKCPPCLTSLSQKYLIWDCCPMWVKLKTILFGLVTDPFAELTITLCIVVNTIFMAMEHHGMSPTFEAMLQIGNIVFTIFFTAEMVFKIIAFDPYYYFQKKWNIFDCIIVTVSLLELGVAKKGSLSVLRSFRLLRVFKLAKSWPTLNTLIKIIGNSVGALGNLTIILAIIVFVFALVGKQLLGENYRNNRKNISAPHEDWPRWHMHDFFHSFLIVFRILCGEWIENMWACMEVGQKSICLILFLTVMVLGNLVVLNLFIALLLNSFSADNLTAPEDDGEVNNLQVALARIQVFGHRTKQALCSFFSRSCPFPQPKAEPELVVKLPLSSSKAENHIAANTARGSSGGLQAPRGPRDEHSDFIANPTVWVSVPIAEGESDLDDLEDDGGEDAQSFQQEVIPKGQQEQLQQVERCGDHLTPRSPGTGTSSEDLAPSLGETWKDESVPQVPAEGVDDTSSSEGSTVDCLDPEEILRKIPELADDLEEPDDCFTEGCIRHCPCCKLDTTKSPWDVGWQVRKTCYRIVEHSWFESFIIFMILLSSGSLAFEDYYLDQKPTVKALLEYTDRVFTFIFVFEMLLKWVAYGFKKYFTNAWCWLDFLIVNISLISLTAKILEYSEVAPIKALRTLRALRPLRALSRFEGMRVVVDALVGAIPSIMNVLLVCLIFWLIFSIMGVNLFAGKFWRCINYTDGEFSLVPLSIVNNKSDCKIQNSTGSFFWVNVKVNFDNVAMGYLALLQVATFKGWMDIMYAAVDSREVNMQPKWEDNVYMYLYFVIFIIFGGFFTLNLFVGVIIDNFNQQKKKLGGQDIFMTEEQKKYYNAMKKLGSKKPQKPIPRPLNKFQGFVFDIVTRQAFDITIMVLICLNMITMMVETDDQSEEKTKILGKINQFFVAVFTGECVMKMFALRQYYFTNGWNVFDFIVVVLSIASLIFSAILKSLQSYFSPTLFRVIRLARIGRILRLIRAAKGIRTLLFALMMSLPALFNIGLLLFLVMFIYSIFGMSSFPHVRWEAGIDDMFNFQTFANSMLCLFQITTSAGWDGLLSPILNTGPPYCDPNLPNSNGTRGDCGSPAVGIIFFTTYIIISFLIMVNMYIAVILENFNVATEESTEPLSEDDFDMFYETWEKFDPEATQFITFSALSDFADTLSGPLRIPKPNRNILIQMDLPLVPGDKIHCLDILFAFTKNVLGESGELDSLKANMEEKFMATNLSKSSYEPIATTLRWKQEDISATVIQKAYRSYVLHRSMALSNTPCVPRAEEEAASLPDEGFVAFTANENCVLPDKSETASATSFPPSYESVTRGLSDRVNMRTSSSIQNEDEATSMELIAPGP
human Nav1.8, sequence (Q07699 19-218 partner): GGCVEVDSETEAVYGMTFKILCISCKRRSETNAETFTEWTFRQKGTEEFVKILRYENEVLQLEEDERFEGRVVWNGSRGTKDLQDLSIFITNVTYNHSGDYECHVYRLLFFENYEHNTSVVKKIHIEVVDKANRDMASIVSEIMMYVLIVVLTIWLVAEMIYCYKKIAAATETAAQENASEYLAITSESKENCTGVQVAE

SMILES | Nav1.8, pIC50
Cl.O=C1c2cc(F)c(Br)cc2N2CN1c1ccc(=O)[nH]c1CCNCc1cc(F)ccc12 [Example 63, 3-Bromo-2,8-difluoro-10,11,12,13-tetrahydro-19H-5,18-methanodibenzo[c,f]pyrido[3,2-j][1,5,9]triazacyclotridecine-15,19(14H)-dione hydrochloride] | 8
Cl.O=C1c2cc(F)c(F)cc2N2CN1c1ccc(=O)[nH]c1CCNCc1c2ccc(F)c1Cl [Example 64, 9-Chloro-2,3,8-trifluoro-10,11,12,13-tetrahydro-19H-5,18-methanodibenzo[c,f]pyrido[3,2-i][1,5,9]triazacyclotridecine-15,19(14H)-dione hydrochloride] | 8.2
Cl.[2H]C1([2H])N2C(=O)c3cc(F)c(F)cc3N1c1ccc(F)c(Cl)c1CNCCc1[nH]c(=O)ccc12 [Example 65, 9-Chloro-2,3,8-trifluoro-10,11,12,13-tetrahydro-19H-5,18-methanodibenzo[c,f]pyrido[3,2-j][1,5,9]triazacyclotridecine-15,19(14H)-dione-20,20-d2 hydrochloride] | 8.3
Cl.O=C1c2cc(F)c(C(F)(F)F)cc2N2CN1c1ccc(=O)[nH]c1CCNCc1cc(Cl)ccc12 [Example 66, 8-Chloro-2-fluoro-3-(trifluoromethyl)-10,11,12,13-tetrahydro-19H-5,18-methanodibenzo[c,f]pyrido[3,2-j][1,5,9]triazacyclotridecine-15,19(14H)-dione hydrochloride] | 8.2
N#Cc1cc2c(cc1F)C(=O)N1CN2c2ccc(F)c(Cl)c2CNCCc2[nH]c(=O)ccc21 [Example 67, 9-chloro-2,8-difluoro-15,19-dioxo-10,11,12,13,14,15-hexahydro-19H-5,18-methanodibenzo[c,f]pyrido[3,2-j][1,5,9]triazacyclotridecine-3-carbonitrile] | 8.3
Cc1c(F)ccc2c1CNCCc1[nH]c(=O)ccc1N1CN2c2cc(F)c(F)cc2C1=O.Cl [Example 68, 2,3,8-Trifluoro-9-methyl-10,11,12,13-tetrahydro-19H-5,18-methanodibenzo[c,f]pyrido[3,2-j][1,5,9]triazacyclotridecine-15,19(14H)-dione hydrochloride] | 7.7
Cl.O=C1c2cc(Cl)c(F)cc2N2CN1c1ccc(=O)[nH]c1CCNCc1c2ccc(F)c1F [Example 69, 2-Chloro-3,8,9-trifluoro-10,11,12,13-tetrahydro-19H-5,18-methanodibenzo[c,f]pyrido[3,2-j][1,5,9]triazacyclotridecine-15,19(14H)-dione hydrochloride] | 7.6
COc1c(F)ccc2c1CNCCc1[nH]c(=O)ccc1N1CN2c2cc(F)c(F)cc2C1=O.O=CO [Example 70, 2,3,8-Trifluoro-9-methoxy-10,11,12,13-tetrahydro-19H-5,18-methanodibenzo-[c,f]pyrido[3,2-j][1,5,9]triazacyclotridecine-15,19(14H)-dione, Formic acid salt] | 6.1
Cc1c(F)ccc2c1CNCCc1[nH]c(=O)ccc1N1CN2c2cc(C#N)c(F)cc2C1=O.Cl [Example 71, 2,8-Difluoro-9-methyl-15,19-dioxo-10,11,12,13,14,15-hexahydro-19H-518-methanodibenzo-[c,f]pyrido[3,2-j][1,5,9]triazacyclotridecine-3-carbonitrile hydrochloride] | 7.6
Cl.N#Cc1cc2c(cc1Cl)C(=O)N1CN2c2ccc(F)c(F)c2CNCCc2[nH]c(=O)ccc21 [Example 72, 2-Chloro-8,9-difluoro-15,19-dioxo-10,11,12,13,14,15-hexahydro-19H-5,18-methanodibenzo-[c,f]pyrido[3,2-j][1,5,9]triazacyclotridecine-3-carbonitrile hydrochloride] | 7.5
COc1c(F)ccc2c1CNCCc1[nH]c(=O)ccc1N1CN2c2cc(C#N)c(F)cc2C1=O.Cl [Example 73, 2,8-Difluoro-9-methoxy-15,19-dioxo-10,11,12,13,14,15-hexahydro-19H-5,18-methanodibenzo-[c,f]pyrido[3,2-j][1,5,9]triazacyclotridecine-3-carbonitrile hydrochloride] | 6.1
Cl.O=C1c2cc(F)c(F)cc2N2CN1c1ccc(=O)[nH]c1CCNCc1c2ccc(Cl)c1F [Example 74, 8-Chloro-2,3,9-trifluoro-10,11,12,13-tetrahydro-19H-5,18-methanodibenzo-[c,f]pyrido[3,2-j][1,5,9]triazacyclotridecine-15,19(14H)-dione hydrochloride] | 7.3
Cl.O=C1c2cc(F)c(F)cc2N2CN1c1ccc(=O)[nH]c1CCNCc1c(OC(F)F)cccc12 [Example 75, 9-(Difluoromethoxy)-2,3-difluoro-10,11,12,13-tetrahydro-19H-5,18-methanodibenzo[c,f]pyrido[3,2-j][1,5,9]triazacyclotridecine-15,19(14H)-dione hydrochloride] | 5.4
Cl.O=C1c2cc(F)c(F)cc2N2CN1c1ccc(=O)[nH]c1CCNCc1cc(Cl)ccc12 [Example 76, 8-Chloro-2,3-difluoro-10,11,12,13-tetrahydro-19H-5,18-methanodibenzo[c,f]pyrido[3,2-j][1,5,9]triazacyclotridecine-15,19(14H)-dione hydrochloride] | 7.2
Cl.O=C1c2cc(F)c(F)cc2N2CN1c1ccc(=O)[nH]c1CCNCc1c2ccc(Cl)c1Cl [Example 77, 8,9-Dichloro-2,3-difluoro-10,11,12,13-tetrahydro-19H-5,18-methanodibenzo[c,f]pyrido[3,2-j][1,5,9]triazacyclotridecine-15,19(14H)-dione hydrochloride] | 8.7
Cl.O=C1c2cc(C(F)(F)F)ccc2N2CN1c1ccc(=O)[nH]c1CCNCc1ccccc12 [Example 78, 2-(Trifluoromethyl)-10,11,12,13-tetrahydro-19H-5,18-methanodibenzo[c,f]pyrido[3,2-j][1,5,9]triazacyclotridecine-15,19(14H)-dione hydrochloride] | 6.7
Cl.O=C1c2cc(F)c(F)cc2N2CN1c1ccc(=O)[nH]c1CCNCc1c(C(F)F)cccc12 [Example 79, 9-(Difluoromethyl)-2,3-difluoro-10,11,12,13-tetrahydro-19H-5,18-methanodibenzo[c,f]pyrido[3,2-j][1,5,9]triazacyclotridecine-15,19(14H)-dione hydrochloride] | 7.1
Cl.O=C1c2cc(F)c(C(F)(F)F)cc2N2CN1c1ccc(=O)[nH]c1CCNCc1c(F)cccc12 [Example 80, 2,9-Difluoro-3-(trifluoromethyl)-10,11,12,13-tetrahydro-19H-5,18-methanodibenzo-[c,f]pyrido[3,2-j][1,5,9]triazacyclotridecine-15,19(14H)-dione hydrochloride] | 7.7
Cl.O=C1c2cc(F)c(C(F)(F)F)cc2N2CN1c1ccc(=O)[nH]c1CCNCc1c(Cl)cccc12 [Example 81, 9-Chloro-2-fluoro-3-(trifluoromethyl)-10,11,12,13-tetrahydro-19H-5,18-methanodibenzo-[c,f]pyrido[3,2-j][1,5,9]triazacyclotridecine-15,19(14H)-dione hydrochloride] | 8.5
